Source: patent US20170335304A1, “OXIDIZED PROTEIN HYDROLASE ACTIVITY ENHANCING AGENT AND GLYCATION STRESS INHIBITOR” (ARKRAY, Inc., priority 2016, published 2017)

Tests used:
Type in all cases: biochemical
[1] = molecular target: AGEs modified bovine serum albumin (AGE-BSA) cross-linked to collagen (Bos taurus, UniProt P02769); test: AGEs Cross-Link Breaking Effect Confirmatory Test (Test 2); conditions: cross-link breaking reaction at 37° C. for 18 hours; punicalagin 5 mmol/L
Method: The test was carried out according to the description in Sara Vasan et al. (Nature, 382, pp275-278 (1996)).
300 μL/well of SuperBlock T20 (PBS) Blocking Buffer was added to a commercially available 96-well microplate precoated with collagen, which then was reacted at 37° C. for one hour. After the reaction, it was washed with 0.05% polyethylene (20) sorbitan monolaurate (Tween 20)/PBS(-), and then AGEs modified bovine serum albumin (AGE-BSA) was added to each well of the microplate, which then was subjected to a crosslinking reaction at 37° C. for four hours. After the reaction, it was washed with Tween 20/PBS(-). Thereafter, a plant extract was added to each well and thereby it was subjected to a cross-link breaking (cleaving) reaction at 37° C. for 18 hours. After that, it was washed with Tween 20/PBS(-) and a primary antibody (anti-albumin bovine serum rabbit-polyclonal) was added thereto, which then was reacted at room temperature for 30 minutes. […] As a reaction stop solution, 1N HCl was added thereto, and the absorbance at 450 nm (dominant wavelength)/630 nm (complementary wavelength) was measured with a microplate reader. The amount of AGE-BSA that remained was determined from a calibration curve in which the amount of AGE-BSA was varied. Furthermore, the AGE-BSA decomposition rate (Collagen cross-link decomposition rate)was determined using the following formula. […]

[2] = molecular target: T1, Acylamino-acid releasing enzyme (AARE) (OPH) (Sus scrofa, UniProt P19205); test: OPH Activation Confirmatory Test (Test 2); conditions: sample solution 5 mg/ml; 24 hours at 37° C.; relative to Ref without sample; n=3
T1 construct: purchased Takara Bio Inc
T1 sequence (P19205 1-732): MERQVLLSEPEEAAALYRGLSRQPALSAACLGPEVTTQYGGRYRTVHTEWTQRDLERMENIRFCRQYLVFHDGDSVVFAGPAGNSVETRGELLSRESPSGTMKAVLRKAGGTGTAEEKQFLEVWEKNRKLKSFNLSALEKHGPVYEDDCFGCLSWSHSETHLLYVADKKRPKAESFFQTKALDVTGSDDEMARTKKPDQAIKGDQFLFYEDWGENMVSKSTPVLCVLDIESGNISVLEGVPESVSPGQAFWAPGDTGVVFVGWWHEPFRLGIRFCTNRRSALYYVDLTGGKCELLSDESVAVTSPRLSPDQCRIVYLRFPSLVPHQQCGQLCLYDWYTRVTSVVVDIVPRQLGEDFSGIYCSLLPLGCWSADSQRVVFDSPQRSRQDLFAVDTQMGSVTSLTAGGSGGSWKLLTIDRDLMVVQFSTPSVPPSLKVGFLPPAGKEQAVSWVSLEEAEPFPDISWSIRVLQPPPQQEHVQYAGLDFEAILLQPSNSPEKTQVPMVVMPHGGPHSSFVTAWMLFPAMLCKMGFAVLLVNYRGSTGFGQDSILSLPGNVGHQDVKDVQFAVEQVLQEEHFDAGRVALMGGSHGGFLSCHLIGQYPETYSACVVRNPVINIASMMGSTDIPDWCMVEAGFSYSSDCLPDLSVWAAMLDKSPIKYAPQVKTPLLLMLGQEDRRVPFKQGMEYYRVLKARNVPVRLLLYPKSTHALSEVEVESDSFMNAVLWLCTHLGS
Method: To each plant indicated in Table 3 below, 15 times its amount of water was added and it was extracted at 100° C. for 30 minutes and then was solid-liquid separated and condensed. Thereafter, it was sterilized at 100° C. or higher for 30 minutes or less, which then was spray-dried. Thus, plant extract powders were obtained.
Each plant extract powder mentioned above was diluted with distilled water so as to be 5 mg/ml, which then was used as a sample solution. […]
The OPH Solution, the AAPA solution, and the sample solution (5 mg/mi) were mixed together to be added to each well of a 96-well microplate and then were reacted for 24 hours in an incubator set at 37° C. The absorbance at 405 nm of each reaction solution was measured with a microplate reader.
The enzyme activity of the OPH was determined as variation in absorbance (reaction rate) per hour (the OPH reaction rate of the sample). On the other hand, as a reference (Ref), the same measurement was carried out without adding the sample solution and then the reaction rate was determined (the OPH reaction rate of Ref). Using the OPH reaction rate of the sample and the OPH reaction rate of Ref, the OPH activation rate (%) was calculated from the following formula (n=3). […]

[3] = AGEs Cross-Link Breaking Effect Confirmatory Test (Test 3); conditions: same measurement as Test 1, mixture solid content 7.42 mg/mL
Method: (§1) A plant extract, 10 mmol/L of PPD, and 0.2 mol/L of phosphate buffer solution (pH 7.4) were mixed together at a ratio of 5:1:4 and then were reacted at 37° C. for eight hours (n=3). After completion of the reaction, hydrochloric acid was added thereto to stop the reaction and thus a reaction solution was obtained. […] The amount of benzoic acid contained in the reaction solution was determined by subtracting the amount of benzoic acid contained in the plant extract, which was measured separately. Since 1 mol of PPD produces 1 mol of benzoic acid, the cross-link breaking rate was calculated by the following formula. Cross-link breaking rate (%)={(A−B)/C}×100 • A: The amount of benzoic acid contained in the reaction solution • B: The amount of benzoic acid contained in the plant extract • C: The amount of PPD provided for the reaction (the amount of the substrate) As a control, a test was carried out using 10 mmol/L of PTB instead of the plant extract. The same measurement as in the AGEs cross-link breaking effect confirmatory test (Test 1) was carried out except for using a mixture of plant extracts indicated in Table 6 below.

[4] = AGEs Cross-link Breaking Effect Confirmatory Test (Test 1); conditions: 10 mmol/L PPD, pH 7.4, 37° C., eight hours; n=3; PTB 10 mmol/L
Method: as §1, with “The test was carried out according to the description in […] al. (Nature, 382, pp275-278 (1996)). […] A plant” for “A plant”, “breaking rate (%)={(A-B)/C}×100 • A:” for “breaking rate (%)={(A−B)/C}×100 • A:”, “plant extract.” for “plant extract. The same measurement as in the AGEs cross-link breaking effect confirmatory test (Test 1) was carried out except for using a mixture of plant extracts indicated in Table 6 below.”

Chain of AGEs modified bovine serum albumin (AGE-BSA) cross-linked to collagen (P02769 25-607): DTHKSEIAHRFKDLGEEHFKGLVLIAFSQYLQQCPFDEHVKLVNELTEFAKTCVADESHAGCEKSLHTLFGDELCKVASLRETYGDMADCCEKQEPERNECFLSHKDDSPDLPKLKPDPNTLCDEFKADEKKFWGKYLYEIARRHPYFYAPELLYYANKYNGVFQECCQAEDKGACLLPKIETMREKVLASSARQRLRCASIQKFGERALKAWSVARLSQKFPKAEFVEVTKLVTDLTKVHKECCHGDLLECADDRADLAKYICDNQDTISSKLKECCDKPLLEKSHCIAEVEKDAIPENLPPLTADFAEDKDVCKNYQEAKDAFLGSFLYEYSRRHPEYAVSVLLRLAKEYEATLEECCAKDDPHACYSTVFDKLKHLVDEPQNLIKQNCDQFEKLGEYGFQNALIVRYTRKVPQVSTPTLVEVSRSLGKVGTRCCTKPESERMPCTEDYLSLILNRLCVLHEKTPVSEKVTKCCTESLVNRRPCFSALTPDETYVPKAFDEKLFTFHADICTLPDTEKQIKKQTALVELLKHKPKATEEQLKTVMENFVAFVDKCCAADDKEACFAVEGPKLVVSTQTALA

For `O=C1O[C@H]2[C@@H]3OC(=O)c4cc(O)c(O)c(O)c4-c4c(O)c(O)c5oc(=O)c6c(c(O)c(O)c7oc(=O)c4c5c76)-c4c(cc(O)c(O)c4O)C(=O)OC[C@H]3OC(O)[C@@H]2OC(=O)c2cc(O)c(O)c(O)c2-c2c1cc(O)c(O)c2O` (mixture of isomers) [Punicalagin], the “Amount of Remaining AGE-BSA” value [1] was 343.3 ng and the “Collagen Cross-Link Decomposition Rate (%)” value [1] was 65.7%.

With `O=C(O[C@@H]1Cc2c(O)cc(O)cc2O[C@@H]1c1cc(O)c(O)c(O)c1)c1cc(O)c(O)c(O)c1` [EGCg, Epigallocatechin gallate] the “OPH Activation Rate (%) (Mean Value ± Standard Deviation)” value [2] was 15.5 ± 3.2%.

For `O=C(C[n+]1ccsc1)c1ccccc1.[Br-]` [PTB, N-phenacylthiazolium bromide], the “Cross-Link Breaking Rate (%) (Mean Value ± Standard Deviation)” value [3] was 25.34 ± 0.19% and the “Cross-Link Breaking Rate (%) (Mean Value ± Standard Deviation)” value [4] was 20.47 ± 0.29%.
